Where a name gives a salt, the structure may show the parent alone.

In this assay the test system is influx of neutrophils to the lung in LPS-challenged rats. Nature of the assay: Rat LPS neutrophilia model. The format is in vivo. The following applies: intratracheal compound 15 min-24 hours before LPS aerosol (100 ug/ml, 15 min), lavage 4 hours later, in at least one of the range of conditions tested. On the procedure: Rat LPS Neutrophilia Model
The effect of compounds on the influx of neutrophils to the lung in LPS-challenged rats is evaluated as follows. The test compound is suspended in one of the following solutions: 0.5% tween 80/PBS, 0.5% tween 80/saline, 10% EtOH/saline (with pH adjusted to 2.0, or 8.0 with HCl, or unadjusted), Saline @ pH 2.0, 6.5 or 8.0, 0.5% Tragacanth, 1% DMSO/20% Encapsin/Saline, or acidified 5% Tragacanth. The suspension process may be aided by the use of a glass homogenizer. For intratracheal administration, the animals are anesthetized with inhaled isoflurane and placed in a supine position, the trachea is intubated with a steel gavage needle (1.5 inch, 22 gauge, small ball) or a Penn-Century Microsprayer Aerosolizer (model IA-1B) and 200 ul of dosing solution is delivered. The animals are visually monitored during the recovery process, which typically occurs within two minutes.
Rats treated with compound or vehicle (15 min-24 hours pretreatment) are exposed to an LPS aerosol (100 ug/ml) for 15 min. Four hours later the rats are euthanized with pentobarbital (100 mg/kg, i.p.) and the airways are lavaged with 5 washes of 5 ml of phosphate buffered saline. The harvested cells are stained (Diffquick) and counted to determine total and differential cell data. In a typical study, macrophages represent 40-70% of the total cells, and polymorphonuclear cells 30-60% of the total cells. Inhibition of neutrophil levels relative to no compound controls is calculated based on the differential counts.
The assay has varying conditions, such as concentration, pretreat time, form of the compound (crystalline, amorphous, salts, micronised), and a wet or dry application of the compound. The data is obtained as % inhibition using a particular concentration and pretreat time.
With `CNC(=O)c1ccc(C)c(-c2nc(N3CCC(N4CCCCC4)CC3)nc3c2CNC(=O)N3c2c(F)cccc2F)c1` [Example 176, 3-[2-(1,4′-bipiperidin-1′-yl)-8-(2,6-difluorophenyl)-7-oxo-5,6,7,8-tetrahydropyrimido[4,5-d]pyrimidin-4-yl]-N,4-dimethylbenzamide], the “inhibition of neutrophilia (neutrophil influx to the lung)” value (from here on “inhibition of neutrophilia”) is recorded as “statistically nonsignificant inhibition of neutrophilia”.
As to `CN(C)CCNc1nc(-c2cccc(C(=O)Nc3ccc(F)cc3)c2)c2c(n1)N(c1c(F)cccc1F)C(=O)NC2` [Example 93, 3-(8-(2,6-difluorophenyl)-2-{[2-(dimethylamino)ethyl]amino}-7-oxo-5,6,7,8-tetrahydropyrimido[4,5-d]pyrimidin-4-yl)-N-(4-fluorophenyl)benzamide], the “inhibition of neutrophilia” value is recorded as “statistically nonsignificant inhibition of neutrophilia”.
Regarding `Cc1ccc(C(=O)Nc2ccc(C)c(-c3nc(OC(C)C)nc4c3CNC(=O)N4c3c(F)cccc3F)c2)cc1F` [Example 26, N-(3-{8-(2,6-difluorophenyl)-2-[(1-methylethyl)oxy]-7-oxo-5,6,7,8-tetrahydropyrimido[4,5-d]pyrimidin-4-yl}-4-methylphenyl)-3-fluoro-4-methylbenzamide], the “inhibition of neutrophilia” value was “inactive”.
To `CNC(=O)c1ccc(C)c(-c2nc(NCCCN(C)C)nc3c2CNC(=O)N3c2c(F)cccc2F)c1` [Example 166, 3-(8-(2,6-difluorophenyl)-2-{[3-(dimethylamino)propyl]amino}-7-oxo-5,6,7,8-tetrahydropyrimido[4,5-d]pyrimidin-4-yl)-N,4-dimethylbenzamide] belongs “statistically nonsignificant inhibition of neutrophilia”.
To `Cc1ccc(C(=O)Nc2ccc(F)c(F)c2)cc1-c1nc(NCCN(C)C)nc2c1CNC(=O)N2c1c(F)cccc1F` [Example 138, N-(3,4-difluorophenyl)-3-(8-(2,6-difluorophenyl)-2-{[2-(dimethylamino)-ethyl]amino}-7-oxo-5,6,7,8-tetrahydropyrimido[4,5-d]pyrimidin-4-yl)-4-methylbenzamide] belongs “statistically significant inhibition of neutrophilia”.
Consider `CCCNC(=O)c1ccc(C)c(-c2nc(NCCCN(CC)CC)nc3c2CNC(=O)N3c2c(F)cccc2F)c1` [29(c), 3-[2-{[3-(diethylamino)propyl]amino}-8-(2,6-difluorophenyl)-7-oxo-5,6,7,8-tetrahydropyrimido[4,5-d]pyrimidin-4-yl]-4-methyl-N-propylbenzamide], for which the “inhibition of neutrophilia” value is given as “statistically significant inhibition of neutrophilia”.
As for `Cc1ccc(C(=O)Nc2ccc(C)c(-c3nc(N4CCC(N)CC4)nc4c3CNC(=O)N4c3c(F)cccc3F)c2)cc1F` [Example 24, N-{3-[2-(4-amino-1-piperidinyl)-8-(2,6-difluorophenyl)-7-oxo-5,6,7,8-tetrahydropyrimido[4,5-d]pyrimidin-4-yl]-4-methylphenyl}-3-fluoro-4-methylbenzamide], the “inhibition of neutrophilia” value is listed as “statistically nonsignificant inhibition of neutrophilia”.
As to `Cc1ccc(C(=O)Nc2ccc(F)cc2)cc1-c1nc(NCCN(C)C)nc2c1CNC(=O)N2c1c(F)cccc1F` [8(c), 3-(8-(2,6-difluorophenyl)-2-{[2-(dimethylamino)ethyl]amino}-7-oxo-5,6,7,8-tetrahydropyrimido[4,5-d]pyrimidin-4-yl)-N-(4-fluorophenyl)-4-methylbenzamide], the “inhibition of neutrophilia” value is “statistically significant inhibition of neutrophilia”.
Take `Cc1ccc(C(=O)NC(C)C)cc1-c1nc(N2CCCN(C)CC2)nc2c1CNC(=O)N2c1c(F)cccc1F` [Example 179, 3-[8-(2,6-difluorophenyl)-2-(4-methylhexahydro-1H-1,4-diazepin-1-yl)-7-oxo-6,7,8-tetrahydropyrimido[4,5-d]pyrimidin-4-yl]-4-methyl-N-(1-methylethyl)benzamide trifluoroacetate]: the “inhibition of neutrophilia” value is on record as “statistically nonsignificant inhibition of neutrophilia”.
Then `Cc1ccc(C(=O)NC(C)C)cc1-c1nc(N(C)CCCN(C)C)nc2c1CNC(=O)N2c1c(F)cccc1F` [34(d), 3-{8-(2,6-difluorophenyl)-2-[[3-(dimethylamino)propyl](methyl)amino]-7-oxo-5,6,7,8-tetrahydropyrimido[4,5-d]pyrimidin-4-yl}-4-methyl-N-(1-methylethyl)benzamide], with “statistically nonsignificant inhibition of neutrophilia”; and `Cc1ccc(C(=O)NCc2ccccc2)cc1-c1nc(NCCCN(C)C)nc2c1CNC(=O)N2c1c(F)cccc1F` [Example 151, 3-(8-(2,6-difluorophenyl)-2-{[3-(dimethylamino)propyl]amino}-7-oxo-5,6,7,8-tetrahydropyrimido[4,5-d]pyrimidin-4-yl)-4-methyl-N-(phenylmethyl)benzamide], with “statistically nonsignificant inhibition of neutrophilia”; and `CN(C)CCNc1nc(-c2cccc(C(=O)Nc3ccccc3)c2)c2c(n1)N(c1c(F)cccc1F)C(=O)NC2` [Example 91, 3-(8-(2,6-difluorophenyl)-2-{[2-(dimethylamino)ethyl]amino}-7-oxo-5,6,7,8-tetrahydropyrimido[4,5-d]pyrimidin-4-yl)-N-phenylbenzamide], with “statistically significant inhibition of neutrophilia”.
In the case of `CCN(CC)CCCNc1nc(-c2cc(C(=O)NC)ccc2C)c2c(n1)N(c1c(F)cccc1F)C(=O)NC2` [Example 172, 3-[2-{[3-(diethylamino)propyl]amino}-8-(2,6-difluorophenyl)-7-oxo-5,6,7,8-tetrahydropyrimido[4,5-d]pyrimidin-4-yl]-N,4-dimethylbenzamide], the “inhibition of neutrophilia” value is given as “statistically nonsignificant inhibition of neutrophilia”.
Consider `Cc1ccc(C(=O)NC(C)C)cc1-c1nc(N2CCC(N3CCN(C)CC3)CC2)nc2c1CNC(=O)N2c1c(F)cccc1F` [Example 72, 3-{8-(2,6-difluorophenyl)-2-[4-(4-methyl-1-piperazinyl)-1-piperidinyl]-7-oxo-5,6,7,8-tetrahydropyrimido[4,5-d]pyrimidin-4-yl}-4-methyl-N-(1-methylethyl)benzamide], for which the “inhibition of neutrophilia” value was “statistically significant inhibition of neutrophilia”.
To `Cc1ccc(C(=O)NC(C)C)cc1-c1nc(NCCCN(C)C)nc2c1CNC(=O)N2c1c(F)cccc1F` [Example 40, 3-(8-(2,6-difluorophenyl)-2-{[3-(dimethylamino)propyl]amino}-7-oxo-5,6,7,8-tetrahydropyrimido[4,5-d]pyrimidin-4-yl)-4-methyl-N-(1-methylethyl)benzamide] belongs “statistically significant inhibition of neutrophilia”.
Then `CNC(=O)c1ccc(C)c(-c2nc(N3CCC(N4CCCC4)CC3)nc3c2CNC(=O)N3c2c(F)cccc2F)c1` [Example 175, 3-{8-(2,6-difluorophenyl)-7-oxo-2-[4-(1-pyrrolidinyl)-1-piperidinyl]-5,6,7,8-tetrahydropyrimido[4,5-d]pyrimidin-4-yl}-N,4-dimethylbenzamide], with “inactive”.
Turning to `CSc1nc(-c2cc(NC(=O)c3ccc(C)c(F)c3)ccc2C)c2c(n1)N(c1c(F)cccc1F)C(=O)NC2` [23(c), N-{3-[8-(2,6-difluorophenyl)-2-(methylthio)-7-oxo-5,6,7,8-tetrahydropyrimido[4,5-d]pyrimidin-4-yl]-4-methylphenyl}-3-fluoro-4-methylbenzamide], the “inhibition of neutrophilia” value is “inactive”.
Then `CCN(CC)CCCNc1nc(-c2cc(C(=O)Nc3ccc(F)cc3)ccc2C)c2c(n1)N(c1c(F)cccc1F)C(=O)NC2` [Example 43, 3-[2-{[3-(diethylamino)propyl]amino}-8-(2,6-difluorophenyl)-7-oxo-5,6,7,8-tetrahydropyrimido[4,5-d]pyrimidin-4-yl]-N-(4-fluorophenyl)-4-methylbenzamide], with “inactive”.
To `CSc1nc(-c2cc(NC(=O)c3ccsc3)ccc2C)c2c(n1)N(c1c(F)cccc1F)C(=O)NC2` [7(c), N-{3-[8-(2,6-Difluorophenyl)-2-(methylthio)-7-oxo-5,6,7,8-tetrahydropyrimido[4,5-d]pyrimidin-4-yl]-4-methylphenyl}-3-thiophenecarboxamide] belongs “inactive”; to `CSc1ccc(NC(=O)c2ccc(C)c(-c3nc(NCCN(C)C)nc4c3CNC(=O)N4c3c(F)cccc3F)c2)cc1` [Example 127, 3-(8-(2,6-difluorophenyl)-2-{[2-(dimethylamino)ethyl]amino}-7-oxo-5,6,7,8-tetrahydropyrimido[4,5-d]pyrimidin-4-yl)-4-methyl-N-[4-(methylthio)phenyl]benzamide], “statistically significant inhibition of neutrophilia”.
